In patent US11001802B2, “Surface of a vessel with polystyrene, nitrogen, oxygen and a static sessile contact angle for attachment and cultivation of cells” (Nunc A/S, priority 2008, dated 2021):

Legend:
[1] = tested on: H9 human ES cells; test: Adherence of H9 human ES cells to surface modified plates with increasing Y-27632, crystal violet (Example 12); assay type: cell-based
Procedure: Passage 49 H9 human ES cells previously plated to 1:30 Matrigel™ treated plasticware and grown in MEF conditioned media supplemented with 8 ng/ml of bFGF were LIBERASE treated and plated to surface modified plates in MEF conditioned media supplemented with 8 ng/ml of bFGF and not otherwise treated or supplemented with increasing concentrations of Y-27632. 24 and 48 hours after plating H9 human ES cells to surface modified plates small colonies could be observed on Surfaces 2-4 and 13, and CellBIND™, and Primaria™ (cat. no. 353846, Becton Dickinson, Franklin Lakes, N.J.) with crystal violet stain (FIGS. 24-26). Furthermore, the adherence of H9 human ES cell colonies was improved by the addition of Y-27632 and the effect was dose responsive (FIG. 25).

[2] = tested on: dissociated human embryonic stem cells; conditions: from approximately 1%; Wanatabe et al.; cited from earlier work
[3] = tested on: human ES cell line H9; test: Adhesion and growth of H9 cells passaged as single cells on surface modified plates (Examples 6, 8); assay type: cell-based
Procedure: Human ES cells of the cell line H9 were grown as single cells according to the methods disclosed in US patent Application LFS5163USPSP, assigned to LifeScan Inc. Cells were passaged by treatment with TrypLE™ Express for five minutes at 37° C., and seeded at 10,000 cells/cm^2 substrate surface.
Initial passaging of H9 human ES cells onto surface modified plates. Adhesion is improved with continuous 10 μM of Y-27632. This is true for the four surface modified plates tested: 2, 3, 4 and 13.
The role of Y-27632 in human ES cell adhesion and cell growth was studied in relation to the surface modified plates. H9 human ES cells were passaged 38 times with collagenase and 50 times with TrypLE™ Express followed by seeding onto Surfaces modified plates 3 or 4 (naïve cells). Alternatively H9 human ES cells passaged 38 times with collagenase and 38 times with Triple Express followed by 9 passages on surface modified plate 3 (Surface 3, acclimated cells), or surface modified plate 4 (Surface 4, acclimated cells). Cells were seeded at a density of 10^4/cm^2 in MEF conditioned media and grown for two days with or without the presence of 10 μM of Y-27632. […] Surface modified plate 4 improved attachment and/or growth of acclimated human ES cells. The cells were followed for a total of 4 days (FIGS. 19 and 20).

[4] = tested on: HEK293 cells; test: HEK293 growth over three passages, total cell number (Example 22); assay type: cell-based, human; conditions: Surface 4 and Nunclon Delta surface; 2.5 μM Y-27632
Procedure: EMEM (500 μl) supplemented with 10% FBS containing 5.0 μM Y-27632 was dispensed in wells of Multidish 24-well plates with Surface 4 or Nunclon Delta™ surface. Another 500 μl of EMEM supplemented with 10% FBS and containing HEK293 cells was added to the wells (2.0×10^4 cells/cm^2), and the cultures were incubated at 37° C. in a humidified atmosphere of 5% CO2 in air for 3 days. Cells were passaged by treatment with Trypsin/EDTA (Lonza, Verviers, Belgium) for two minutes at 37° C., and the total cell number was determined using a NucleoCount Cell Counter (Chemometec A/S, Allered, Denmark). For successive passages, HEK293 cells were seeded at 2.0×10^4 cells/cm^2. The growth of HEK293 cells on Surface 4 and Nunclon Delta™ surface was enhanced by the presence of 2.5 μM Y-27632 (FIG. 34).

[5] = tested on: human ES cell line H1; test: Attachment, plating efficiency and passage time of H1 human ES cells on surface modified plates (Examples 3, 4); assay type: cell-based
Procedure: Human ES cells of the line H1, at passage 49 were maintained in MEF conditioned media on Nunclon Delta™ plates treated with a 1:30 dilution of growth factor reduced Matrigel™, prior to study. Cells were dissociated from the surface for passage by 1 mg/ml collagenase dissociation or by manual scraping.
These cells were then seeded onto two untreated wells of the surface modified plates (6-well format). Additionally, one well of each plate was treated with 0.1% xeno-free human gelatin as a control. Cells were also plated directly onto untreated and gelatin-treated wells of Costar™ (cat. no. 3516; Corning, Corning, N.Y.), Falcon™ (cat. no. 351146; Becton Dickinson, Franklin Lakes, N.J.) and Nunclon Delta™ (cat. no. 140675; Thermo Fisher Scientific, Roskilde, Denmark) 6-well plates for negative controls, and plated onto wells treated with 1:30 dilution of growth factor reduced Matrigel™ to provide as positive controls. In all treatments cells were maintained in MEF conditioned media.
Human ES cells of the line H1, at passage 49 were maintained in MEF conditioned media on Nunclon Delta™ plates treated with a 1:30 dilution of growth factor reduced Matrigel™, prior to study. Cells were dissociated from the surface for passage by 1 mg/ml collagenase dissociation.
These cells were then seeded onto untreated wells of surface modified plates (6-well format). […]

For `C[C@@H](N)[C@H]1CC[C@H](C(=O)Nc2ccncc2)CC1` [Surface Y-27632, Y-27632], the “human ES cell attachment versus untreated” value ([1]; 1 to 2 micromolar Y-27632) is given as “minimal improvement”, the “adherence of human ES cells to surface modified plates” value ([1]; 4 to 20 micromolar Y-27632) is given as “promoted adherence” and the cloning efficiency [2] is given as “approximately 27%”. The “attachment of naïve single cells” value ([3]; 10 μM Y-27632, surface modified plates 3 and 4) was “improves attachment”, the “attachment of acclimated single cells” value ([3]; 10 μM Y-27632, surface modified plates 3 or 4) was “did not improve attachment” and the “adhesion of H9 cells passaged with TrypLE Express” value ([3]; continuous 10 μM Y-27632, surface modified plates 2, 3, 4 and 13) was “improved”. For the same compound, the “growth of HEK293 cells over 3 passages” value [4] was “enhanced”, the plating efficiency ([5]; H1 (p52) on surface modified plates, 10 μM Y-27632 in MEF conditioned media for 48 hours) was “significantly increased plating efficiency” and the “readiness for passage 4 days after plating” value ([5]; H1 on surface modified plates, 10 μM Y-27632 or 0.5 ng/ml C3 exotransferase) was “could be passaged 4 days after plating”.
